Patent publication US20160128988A1, “COMBINATIONS FOR THE TREATMENT OF CANCER COMPRISING A MPS-1 KINASE INHIBITOR AND A MITOTIC INHIBITOR” (BAYER PHARMA AKTIENGESELLSCHAFT, priority 2013, published 2016)

How the values were obtained:
[1] = Maximum tolerated dose (MTD); assay type: in vivo, nude mice; conditions: nude, mouse, in vivo; Compound A1 PO 2QD 2 days on/5 days off; paclitaxel IV QW; docetaxel i.v. 1 day on/6 days off; read-out: MTD (maximum tolerated dose), single-agent
[2] = test system: MDA-MB 231 human triple-negative breast cancer xenograft tumors
Protocol: The effect of combination treatment of an Mps-1 kinase inhibitor (Compound A1) and paclitaxel was studied in the MDA-MB 231 human triple-negative (no expression of Her2/neu, progesterone receptor, estrogen receptor) xenograft model in nude mice.
Paclitaxel was applied intravenously once per week upon its respective MTD. Substances were formulated in optimal vehicles to achieve solutions. Animal body weight and tumor size were determined three times weekly. […] For combination treatment, Compound A1 and paclitaxel were applied at the same day within a time frame of 4 hours. Animals of control and monotherapy group (Compound A1 only) were treated for a duration of 28 days. Animals of paclitaxel monotherapy and paclitaxel/Mps-1 kinase inhibitor treatment groups were treated for a duration of 50 days. At the end of the study after one final treatment plasma and tumors were sampled for PK analysis and final tumor weight was determined.
MDA-MB 231 human breast cancer cells were implanted s.c. into nude mice on day 0. […] Compound A1 was administered orally (p.o.) upon 1 mg/kg twice daily (2QD) for 2 days on/5 days off (2 on/5 off) in monotherapy and in combination with paclitaxel. Paclitaxel was administered intravenously (i.v.) upon 20 mg/kg once daily (QD) once per week (1 on/6 off) in monotherapy and combination therapy. Tumor growth was monitored by determination of the tumor area using calliper measurement three times weekly. FIG. 3A: Time course of tumor growth. FIG. 3B: Weight of tumors in paclitaxel/Mps-1 kinase inhibitor combination group at the end of the study at day 73 after tumor cell inoculation. FIG. 3C: Time course of animal body weight change during the course of the study.

[3] = test system: human glioblastoma model U87 MG; test: Combination with vincristine in human glioblastoma model U87 MG (intracerebral); assay type: in vivo, nude mice
Protocol: The study was designed to determine the response of this glioblastoma model to the treatment with the investigational Compound A1 and vincristine, both alone at a fixed dose, and vincristine in combination with two different doses, both lower than that of Compound A1 used in the monotherapy schedule. The size of the glioblastoma was used as read out parameter for response.
The cell culture derived human xenograft U87 MG was initiated by transplantation of the tumor cells into the left hemisphere of the mouse brain. Treatment was done in three cycles between day 3 and day 19. Mice were sacrificed at day 24, the brain isolated and shock frozen in 2 methyl-butane. Tumor size were determined as measure for tumor growth inhibition from cryo-slizes after staining.

A2780cis xenograft model = test system: A2780cis xenograft model
Protocol: The effect of the combination treatment of Compound A1 with paclitaxel was studied in a human ovarian carcinoma model in nude mice, namely in the adaptive cisplatin-resistant and paclitaxel intrinsically-resistant A2780cis xenograft model. […] Paclitaxel was administered IV QW at its respective MTD.

[4] = day 24, single agents: Gr. B Compound A1 2.5 mg/kg p.o., Gr. C Vincristine 0.75 mg/kg i.p.

SMILES: COc1cc(S(C)(=O)=O)ccc1Nc1nc2ccc(-c3ccc(NC(=O)[C@H](C)c4ccc(F)cc4)cc3)cn2n1 [Compound A1]
- MTD [1]: 2.5 mg/kg
- Fatal Tox ([2]; Compound A1 1 mg/kg 2QD 2on/5off p.o., paclitaxel 20 mg/kg QD 1on/6off i.v.): 0/10
- anti-tumor efficacy (in words) ([2]; Compound A1 1 mg/kg 2QD p.o. (28 treatment days), combination with paclitaxel 20 mg/kg i.v. (50 treatment days)): no effect on tumor growth
- tolerability (in words) ([2]; Compound A1 1 mg/kg 2QD p.o., paclitaxel 20 mg/kg i.v.): well tolerated without critical body weight loss or toxicities
- T/C weight ([2]; mean final tumor weight, Compound A1 1 mg/kg 2QD 2on/5off p.o.): 0.92
- T/C area ([2]; relative mean tumor area, 28 treatment days, Compound A1 1 mg/kg 2QD 2on/5off p.o., paclitaxel 20 mg/kg QD 1on/6off i.v.): 0.91
- tumor growth inhibition (in words) ([3]; Compound A1 single drug 2.5 mg/kg, combination with vincristine): no inhibitory effect
- BWC [%] (at day), nadir of body weight ([3]; Gr. B: Compound A1 2.5 mg/kg p.o. BIDx2x3): −7.7 (d24) %
- Brain tumor inside [mm^2] ([3]; day 24, single agents: Gr. B Compound A1 2.5 mg/kg p.o. BIDx2x3, Gr. C Vincristine 0.75 mg/kg i.p. 1xqWx3): 15.89 +/− 9.93 mm^2
- Brain tumor outside [mm^2] [3, 4]: 5.50 +/− 4.09 mm^2
- Brain tumor total [mm^2] [3, 4]: 20.64 +/− 12.14 mm^2
- T/C (inside T) [%] [3, 4]: 91.3%
- T/Cweight (A2780cis xenograft model; 14 treatment days, Compound A1 1 mg/kg PO 2QD 2 days on/5 days off): 0.87
- relative T/Carea (A2780cis xenograft model; 14 treatment days, Compound A1 1 mg/kg PO 2QD 2 days on/5 days off, paclitaxel 24 mg/kg IV QW): 0.89
- anti-tumor efficacy (in words) (A2780cis xenograft model; Compound A1 1 mg/kg (14 days), combination with paclitaxel 24 mg/kg (36 treatment days)): weak single-agent efficacy
- tolerability (in words) (A2780cis xenograft model; mouse, in vivo): well tolerated without critical body weight loss or toxicities
